Laboratory results published in US20210032257A1, “(E)-1-(4-(DIMETHYLAMINO)BUT-2-ENOYL)PYRROLIDIN-3-YL 4-((3-ISOPROPYL-5-METHYLPYRAZOLO[1,5-A]PYRIMIDIN-7-YL)AMINO)PIPERIDINE-1-CARBOXYLATE FOR INHIBITING CDK7” (Eli Lilly and Company, priority 2017, published 2021).

Tests used:
Type in all cases: cell-based
A2780 = assay: Cell Proliferation Assay (CELL TITER GLO); details: Homo sapiens, 168 h; A2780, Ovarian Cancer, seven days
Description: (§1) Cell lines are plated at the density 5000 cells per well in 100 μL per well growth medium into a white 96-well cell culture plate. See Table 2 for cell line and culture medium information. Plates are incubated at 37° C. and 5% CO2. The following day, a serial dilution of the test compound is prepared by diluting the compound 1:3 in DMSO for 10 points. The DMSO plate is 1000× the final concentration. In addition to the CDK7 inhibitor, a DMSO alone column is included as a maximum growth control and 10 μM staurosporine final column is included as a maximum growth inhibition control. A 10× dilution plate is then prepared by adding 2 μL per well from the 1000×DMSO plate to 198 μL per well of OMEM (Life Technologies, Carlsbad, Calif., cat #31985-070). Cells are treated with indicated compound by adding 11 μL per well from the 10×OMEM plate to the cell plate containing 100 μL per well growth medium for a 1× final concentration. Plates are placed back into the incubator at 37° C. and 5% CO2. Seven days after compound addition, plates are removed from the incubator and allowed to equilibrate to RT. CELL TITER GLO® reagent is thawed at room temperature and then prepare by mixing one vial of assay buffer with one vial of substrate and swirl gently to mix. CELL TITER GLO® reagent is then added to the cell plate, 100 μL per well, and place on a Titer Plate Shaker at speed setting 2 for 15 minutes at room temperature. After 15 minute incubation on shaker, luminescence is read, 1 second per well, using a Wallac VICTOR2™. Nonlinear regression and sigmoidal dose-response curves are used to calculate the half maximal inhibitory concentration (IC50) with Graphpad Prism 6 software.

NCI-H446 = assay: Cell Proliferation Assay (CELL TITER GLO); details: Homo sapiens, 168 h; NCI-H446, Lung Cancer, seven days
Description: as §1

NCI-H460 = assay: Cell Proliferation Assay (CELL TITER GLO); details: Homo sapiens, 168 h; NCI-H460, Lung Cancer, seven days
Description: as §1

[1] = test system: ARID1A mutants cancer cell lines; assay: Biomarker study: distribution of anti-proliferation effects
Description: (§2) Cancer cell lines are profiled to evaluate the anti-proliferative activity of a test compound in-vitro. Mutation, copy number and gene expression information of ARID1A, KMT2C, KMT2D and/or RB1 genes across cancer cell lines is obtained from COSMIC database (cancer.sanger.ac.uk) and cBioportal (http://www.cbioportal.org/). Cells are cultured in growth medium and plated into a 96-well plate in 100 μL/well growth medium at 5000 cells/well then incubated at 37° C., 5% CO2 overnight. Cells are cultured using supplier recommended media and conditions well known in the art, for example with RPMI 1640 with or without HEPES & L-Glutamine (Thermo SH30255.01) and 1 mM Sodium Pyruvate, and 10% FBS(Gibco cat #10082). The 1000× intermediate dilution plate is prepared by making a 10 mM working solution of a test sample in DMSO and performing 1:3 dilutions in DMSO for 10 points. The 10× dosing plate is prepared by adding 2 μL from the 1000× intermediate dilution plate to 198 μL of OPTIMEM®+10% FBS and mixing well. The cell plate is then treated by adding 11 μL from the 10× dosing plate into the 100 μL/well cell plate for a 1× final concentration. Staurosporine is used as a maximum growth inhibition control at a final concentration of 5 μM. The cell plate is incubated for 7 days at 37° C., 5% CO2. Seven days after treatment, Cell Titer-Glo® (Promega cat #G7571) assay buffer and substrate are removed from −20° C. and allowed to equilibrate to RT. Assay buffer is added to the substrate and swirled gently to mix. The CELL TITER-GLO® reagent (100 μL/well) is added to the cell plate and incubated at RT for 15 minutes. After 15 minutes, luminescence is read using a plate reader. Data is analyzed in Excel and graphed in GraphPad Prism. Statistical analysis and p value is calculated using Mann-Whitney nonparameteric t tests using GraphPad Prism.
(§3) Anti-proliferative effects of a test compound are categorized as insensitive (IC50≥1 μM), cytostatic (IC50<1 μM and % inhibition <70%) or cytotoxic (IC50<1 μM and % inhibition ≥70%).

[2] = test system: KMT2C mutants cancer cell lines; assay: as above
Description: as §2, §3

[3] = test system: KMT2D mutants cancer cell lines; assay: as above
Description: as §2, §3

[4] = test system: Others (cancer cell lines); assay: as above
Description: as §2, §3

[5] = test system: RB1 mutants cancer cell lines; assay: as above
Description: as §2, §3

Question: For `Cc1cc(NC2CCN(C(=O)O[C@H]3CCN(C(=O)/C=C/CN(C)C)C3)CC2)n2ncc(C(C)C)c2n1` [Example 1, [(3S)-1-[(E)-4-(dimethylamino)but-2-enoyl]pyrrolidin-3-yl] 4-[(3-isopropyl-5-methyl-pyrazolo[1,5-a]pyrimidin-7-yl)amino]piperidine-1-carboxylate], which IC50 (A2780) is on record?
Answer: 26.5 nM

Question: And the IC50 (NCI-H446)?
Answer: 14.2 nM

Question: And the IC50 (NCI-H460)?
Answer: 47.9 nM

Question: What about the “Distribution (%) of anti-proliferation effects: Cytotoxic (IC50 <1 μM, % Inh. ≥70)” value (“Distribution (%)” for short) [1] of the same compound?
Answer: 64%, n = 25

Question: And the “Distribution (%)” value [2]?
Answer: 70%, n = 7

Question: And the “Distribution (%)” value [3]?
Answer: 76%, n = 19

Question: What about the “Distribution (%)” value [4] of the same compound?
Answer: 40%, n = 41

Question: And the “Distribution (%)” value [5]?
Answer: 54%, n = 22
